Data as given in US8299048B2, “Hexahydrocyclopentyl[f]indazole sulfonamides and derivatives thereof as selective glucocorticoid receptor modulators” (Merck Sharp & Dohme Corp., priority 2008, dated 2012).

Target: T1, glucocorticoid receptor (Homo sapiens, UniProt P04150)
T1 construct: endogenous in cells
T1 sequence (P04150 1-777): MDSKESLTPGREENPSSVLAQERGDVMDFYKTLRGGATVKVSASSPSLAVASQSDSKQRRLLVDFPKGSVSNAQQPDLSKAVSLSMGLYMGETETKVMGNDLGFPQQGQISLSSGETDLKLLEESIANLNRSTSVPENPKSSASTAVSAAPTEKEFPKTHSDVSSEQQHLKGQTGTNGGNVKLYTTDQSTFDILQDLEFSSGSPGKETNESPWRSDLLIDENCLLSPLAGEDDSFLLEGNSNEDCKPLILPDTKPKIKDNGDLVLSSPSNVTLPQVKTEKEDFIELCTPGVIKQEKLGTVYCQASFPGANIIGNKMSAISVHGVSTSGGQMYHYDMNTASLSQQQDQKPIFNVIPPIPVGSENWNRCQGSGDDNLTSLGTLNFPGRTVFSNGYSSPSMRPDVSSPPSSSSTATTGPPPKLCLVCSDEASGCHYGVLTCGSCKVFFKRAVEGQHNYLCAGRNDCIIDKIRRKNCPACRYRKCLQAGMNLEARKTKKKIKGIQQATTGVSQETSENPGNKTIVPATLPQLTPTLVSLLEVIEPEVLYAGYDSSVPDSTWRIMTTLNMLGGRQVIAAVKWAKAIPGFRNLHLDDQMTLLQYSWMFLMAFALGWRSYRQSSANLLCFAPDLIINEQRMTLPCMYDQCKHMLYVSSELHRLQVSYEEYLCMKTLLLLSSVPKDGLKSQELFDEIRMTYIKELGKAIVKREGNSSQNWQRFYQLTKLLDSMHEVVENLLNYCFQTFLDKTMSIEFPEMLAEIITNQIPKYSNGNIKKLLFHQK
Experiment: Ligand binding assay (GR BIND)
Description: • Materials: • Binding Buffer: TEGM (10 mM Tris-HCl, 1 mM EDTA, 10% glycerol, 1 mM beta-mecaptoethanol, 10 mM Sodium Molybdate, pH 7.2) • 50% HAP Slurry: Calbiochem Hydroxylapatite, Fast Flow, in 10 mM Tris, pH 8.0 and 1 mM EDTA. • Wash Buffer: 40 mM Tris, pH7.5, 100 mM KCl, 1 mM EDTA and 1 mM EGTA.
Phenol red-free Trypsin-EDTA is diluted in the same PBS1:10. The cell layers are rinsed with 1× Trypsin, extra Trypsin is poured out, and the cell layers are incubated at 37° C. for ˜2 min. The flask is tapped and checked for signs of cell detachment. Once the cells begin to slide off the flask, the complete media is added. The cells are counted at this point, then diluted to the appropriate concentration and split into flasks or dishes for further culturing (Usually 1:3 to 1:6 dilution).
When the cells are 70 to 85% confluent, they are detached as described above, and collected by centrifuging at 1000 g for 10 minutes at 4° C. The cell pellet is washed twice with TEGM (10 mM Tris-HCl, 1 mM EDTA, 10% glycerol, 1 mM beta-mercaptoethanol, 10 mM Sodium Molybdate, pH 7.2). After the final wash, the cells are resuspended in TEGM at a concentration of 10^7 cells/mL. The cell suspension is snap frozen in liquid nitrogen or ethanol/dry ice bath and transferred to −80° C. freezer on dry ice. Before setting up the binding assay, the frozen samples are left on ice-water to just thaw (˜1 hr). Then the samples are centrifuged at 12,500 g to 20,000 g for 30 min at 4° C. The supernatant is used to set-up assay right away. If using 50 μL of supernatant, the test compound can be prepared in 50 μL of the TEGM buffer.
1×TEGM buffer is prepared, and the isotope-containing assay mixture is prepared in the following order: EtOH (2% final concentration in reaction), 3H-DEX (Amersham Biosciences) and 1×TEGM. [e.g. For 100 samples, 200 μL (100×2) of EtOH+4.25 μL of 1:10 ^3H—Dex stock+2300 μL (100×23) 1×TEGM]. The compound is serially diluted, e.g., if starting final conc. is 1 μM, and the compound is in 25 μL of solution, for duplicate samples, 75 μL of 4×1 μM solution is made and 3 μL of 100 μM is added to 72 μL of buffer, and 1:5 serial dilution.
25 μL of ^3H-DEX (6 nM) trace and 25 μL compound solution are first mixed together, followed by addition of 50 μL receptor solution. The reaction is gently mixed, spun briefly at about 200 rpm and incubated at 4° C. overnight. 100 μL of 50% HAP slurry is prepared and added to the incubated reaction which is then vortexed and incubated on ice for 5 to 10 minutes. The reaction mixture is vortexed twice more to resuspend HAP while incubating reaction. The samples in 96-well format are then washed in wash buffer using The FilterMate™ Universal Harvester plate washer (Packard). The washing process transfers HAP pellet containing ligand-bound expressed receptor to Unifilter-96 GF/B filter plate (Packard). The HAP pellet on the filter plate is incubated with 50 μL of MICROSCINT (Packard) scintillint for 30 minutes before being counted on the TopCount microscintillation counter (Packard). […] are calculated using DEX as a reference.

SMILES | Ki
CCCS(=O)(=O)N(CC(O)C(F)F)C[C@H]1CCC2=Cc3c(cnn3-c3ccc(F)cc3)C[C@@]21C (stereo partly drawn) [Example 155, N-(3,3-difluoro-2-hydroxypropyl)-N-{[(4αR,5S)-1-(4-fluorophenyl)-4α-methyl-1,4,4α,5,6,7-hexahydrocyclopenta[f]indazol-5-yl]methyl}propane-1-sulfonamide] | 2.9 nM
C[C@]12Cc3cnn(-c4ccc(F)cc4)c3C=C1CC[C@@H]2CN(CC1(O)CC1)S(=O)(=O)CC(F)(F)F [Example 135, 2,2,2-trifluoro-N-{[(4αR,5S)-1-(4-fluorophenyl)-4α-methyl-1,4,4α,5,6,7-hexahydrocyclopenta[f]indazol-5-yl]methyl}-N-[(1-hydroxycyclopropyl)methyl]ethanesulfonamide] | 2.9 nM
C[C@]12Cc3cnn(-c4ccc(F)cc4)c3C=C1CC[C@@H]2CN(CC(O)C(F)(F)F)S(=O)(=O)Cc1ccccc1C(N)=O (stereo partly drawn) [Example 167, 2-({[{[(4αR,5S)-1-(4-fluorophenyl)-4α-methyl-1,4,4α,5,6,7-hexahydrocyclopenta[f]indazol-5-yl]methyl}(3,3,3-trifluoro-2-hydroxypropyl)amino]sulfonyl}methyl) benzamide] | 2.2 nM
C[C@]12Cc3cnn(-c4ccc(F)cc4)c3C=C1CC[C@@H]2CN(CCc1ccccc1F)S(=O)(=O)Cc1ccc(Cl)cc1Cl [Example 105, 1-(2,4-dichlorophenyl)-N-[2-(2-fluorophenyl)ethyl]-N-{[(4αR,5S)-1-(4-fluorophenyl)-4α-methyl-1,4,4α,5,6,7-hexahydrocyclopenta[f]indazol-5-yl]methyl}methanesulfonamide] | 1.7 nM
C[C@]12Cc3cnn(-c4ccc(F)cc4)c3C=C1CC[C@@H]2CN(CC(OS(=O)(=O)CC(F)(F)F)C(F)F)S(=O)(=O)CC(F)(F)F (stereo partly drawn) [Example 134, 2,2-difluoro-1-({{[(4αR,5S)-1-(4-fluorophenyl)-4α-methyl-1,4,4α,5,6,7-hexahydrocyclopenta[f]indazol-5-yl]methyl}[(2,2,2-trifluoroethyl)sulfonyl]amino}methyl)ethyl 2,2,2-trifluoroethanesulfonate] | 1.8 nM
CCCCCCCCS(=O)(=O)N(CCc1ccccc1F)C[C@H]1CCC2=Cc3c(cnn3-c3ccc(F)cc3)C[C@@]21C [Example 104, N-[2-(2-fluorophenyl)ethyl]-N-{[(4αR,5S)-1-(4-fluorophenyl)-4α-methyl-1,4,4α,5,6,7-hexahydrocyclopenta[f]indazol-5-yl]methyl}octane-1-sulfonamide] | 9.8 nM
CCCCCc1ccc(S(=O)(=O)N(CC2CC2)C[C@H]2CCC3=Cc4c(cnn4-c4ccc(F)cc4)C[C@@]32C)cc1 [Example 9, N-(cyclopropylmethyl)-N-{[(4αR,5S)-1-(4-fluorophenyl)-4α-methyl-1,4,4α,5,6,7-hexahydrocyclopenta[f]indazol-5-yl]methyl}-4-pentylbenzenesulfonamide] | 2.2 nM
C[C@H](O)CN(C[C@H]1CCC2=Cc3c(cnn3-c3ccc(F)cc3)C[C@@]21C)S(=O)(=O)CC(F)(F)F [Example 113] | 2.2 nM
C[C@]12Cc3cnn(-c4ccc(F)cc4)c3C=C1CC[C@@H]2CN(CCc1ccc(O)cc1)S(=O)(=O)CC(F)(F)F [Example 130, 2,2,2-trifluoro-N-{[(4αR,5S)-1-(4-fluorophenyl)-4α-methyl-1,4,4α,5,6,7-hexahydrocyclopenta[f]indazol-5-yl]methyl}-N-[2-(4-hydroxyphenyl)ethyl]ethanesulfonamide] | 1.8 nM
C[C@]12Cc3cnn(-c4ccccc4)c3C=C1CC[C@@H]2CN(CCc1ccccn1)S(=O)(=O)Cc1cccnc1 [Example 140, N-{[(4αR,5S)-4α-methyl-1-phenyl-1,4,4α,5,6,7-hexahydrocyclopenta[f]indazol-5-yl]methyl}-1-pyridin-3-yl-N-(2-pyridin-2-ylethyl)methanesulfonamide] | 4.1 nM
COc1ccccc1CCN(C[C@H]1CCC2=Cc3c(cnn3-c3ccccc3)C[C@@]21C)S(=O)(=O)CC(F)(F)F [Example 139, 2,2,2-trifluoro-N-[2-(2-methoxyphenyl)ethyl]-N-{[(4αR,5S)-4α-methyl-1-phenyl-1,4,4α,5,6,7-hexahydrocyclopenta[f]indazol-5-yl]methyl}ethanesulfonamide] | 1.5 nM

Now those with a lower Ki, led by results:

Ki | SMILES
0.5 nM | COC(=O)c1ccccc1CS(=O)(=O)N(CC(O)C(F)(F)F)C[C@H]1CCC2=Cc3c(cnn3-c3ccc(F)cc3)C[C@@]21C (stereo partly drawn) [Example 162, methyl 2-({[{[(4αR,5S)-1-(4-fluorophenyl)-4α-methyl-1,4,4α,5,6,7-hexahydrocyclopenta[f]indazol-5-yl]methyl}(3,3,3-trifluoro-2-hydroxypropyl)amino]sulfonyl}methyl)benzoate]
0.8 nM | C[C@]12Cc3cnn(-c4ccc(F)cc4)c3C=C1CC[C@@H]2CN(CC(O)C(F)F)S(=O)(=O)CC(F)(F)F (stereo partly drawn) [Example 133, N-(3,3-difluoro-2-hydroxypropyl)-2,2,2-trifluoro-N-{[(4αR,5S)-1-(4-fluorophenyl)-4α-methyl-1,4,4α,5,6,7-hexahydrocyclopenta[f]indazol-5-yl]methyl}ethanesulfonamide]
0.9 nM | CC(=O)Nc1ccc(S(=O)(=O)N(CC2CC2)C[C@H]2CCC3=Cc4c(cnn4-c4ccc(F)cc4)C[C@@]32C)cc1 [Example 6, N-{4-[((cyclopropylmethyl){[(4αR,5S)-1-(4-fluorophenyl)-4α-methyl-1,4,4α,5,6,7-hexahydrocyclopenta[f]indazol-5-yl]methyl}amino)sulfonyl]phenyl}acetamide]
0.7 nM | Cc1noc(C)c1S(=O)(=O)N(CC1CC1)C[C@H]1CCC2=Cc3c(cnn3-c3ccc(F)cc3)C[C@@]21C [Example 11, N-(cyclopropylmethyl)-N-{[(4αR,5S)-1-(4-fluorophenyl)-4α-methyl-1,4,4α,5,6,7-hexahydrocyclopenta[f]indazol-5-yl]methyl}-3,5-dimethylisoxazole-4-sulfonamide]
1.2 nM | C[C@]12Cc3cnn(-c4ccc(F)cc4)c3C=C1CC[C@@H]2CN(CCc1ccccn1)S(=O)(=O)Cc1ccccc1C(F)(F)F [Example 153, N-{[(4αR,5S)-1-(4-fluorophenyl)-4α-methyl-1,4,4α,5,6,7-hexahydrocyclopenta[f]indazol-5-yl]methyl}-N-(2-pyridin-2-ylethyl)-1-[2-(trifluoromethyl)phenyl]methanesulfonamide]
1.4 nM | C[C@]12Cc3cnn(-c4ccc(F)cc4)c3C=C1CC[C@@H]2CN(CCc1ccccc1O)S(=O)(=O)c1ccccc1F [Example 116, 2-fluoro-N-{[(4αR,5S)-1-(4-fluorophenyl)-4α-methyl-1,4,4α,5,6,7-hexahydrocyclopenta[f]indazol-5-yl]methyl}-N-[2-(2-hydroxyphenyl)ethyl]benzenesulfonamide]
